Data as given in patent publication US20220279826A1, “OFF-FLAVOR SUPPRESSING AGENT” (AJINOMOTO CO., INC., priority 2019, published 2022).

Legend:
[1] = Sensory evaluation in chicken broth solution with potassium chloride (Experimental Example 3); conditions: chicken broth solution with 0.8 wt % potassium chloride; addition concentration 1 ppm (125 weight ppm with respect to potassium chloride)
Protocol: (§1) As shown in the following (1) to (3) below, 0.8 wt % of potassium chloride was added to a food base powder corresponding to 0.5 wt % of sodium chloride to prepare each base solution having an off-taste derived from potassium chloride.
Potassium chloride (0.8 g) was added to a commercially available powdered chicken broth mix (manufactured by Ajinomoto Co., Inc., trade name “Marutorigara Soup”) (1.0 g), hot water (98.2 g) was added to dissolve the mixture to prepare a base solution (chicken broth soup solution).
(§2) Each compound shown in the following Tables 15 to 17 was added to each base solution (ramen noodle soup solution, chicken broth solution, potage solution) so as to achieve the concentration (addition concentration) shown in the following Tables 15 to 17 to prepare each evaluation sample.
(§3) By a method similar to that in Experimental Example 1, a panel of two experts determined the intensity of off-tastes (bitter taste, metallic taste, harsh taste, astringent taste) derived from potassium chloride in each evaluation sample.

[2] = Sensory evaluation in potage solution with potassium chloride (Experimental Example 3); conditions: Potage solution with 0.8 wt % potassium chloride; addition concentration 1 ppm (125 weight ppm with respect to potassium chloride)
Protocol: as §1
Potassium chloride (0.8 g) was added to a commercially available powdered instant potage (manufactured by Ajinomoto Co., Inc., trade name “Knorr (registered trade mark) Cup Soup Potage”) (7.1 g), hot water (92.1 g) was added to dissolve the mixture to prepare a base solution (potage solution).
as §2, §3

[3] = Sensory evaluation in Japanese noodle soup base solution with potassium chloride (0.2 g) (Experimental Example 5)
Protocol: Potassium chloride (0.2 g) was added to a commercially available Japanese noodle soup base (manufactured by Yamaki Co., Ltd.) (11.1 g), and dissolved by adding hot water (88.7 g) to prepare a base solution.
Each compound shown in the following Table 19 was added to the base solution prepared above so as to achieve the concentration (addition concentration) shown in the following Table 19 to prepare each evaluation sample.
Based on the following evaluation criteria, a panel of two experts determined by consensus the intensity of off-tastes (bitter taste, metallic taste, harsh taste, astringent taste) derived from potassium chloride in each evaluation sample, by reference to each potassium chloride aqueous solution adjusted to 0.2 wt %, 0.15 wt % or 0.1 wt %.

[4] = Sensory evaluation in pea protein aqueous solution (Experimental Example 8); conditions: text summary of Table 22
Protocol: Each compound shown in the following Table 22 was added to an aqueous solution prepared by dissolving powdered pea protein (6 parts by weight) and granulated sugar (4 parts by weight) in ion exchange water (90 parts by weight) (hereinafter at times referred to as pea protein aqueous solution) so as to achieve the concentration (addition concentration) shown in the following Table 22 to prepare each evaluation sample. Here, the powdered pea protein manufactured by Cosucra was used.
Based on the following evaluation criteria, a panel of four experts determined by consensus the intensity of off-tastes (bitter taste, harsh taste, astringent taste) derived from pea protein in each evaluation sample, by comparison with a pea protein aqueous solution without addition of any compound (negative control).

[5] = Sensory evaluation in 0.15 wt % catechin aqueous solution (Experimental Example 9); conditions: summary of Table 23
Protocol: Each compound shown in the following Table 23 was added to a 0.15 wt % catechin aqueous solution (an aqueous solution prepared by dissolving catechin (0.15 parts by weight) in ion exchange water (99.85 parts by weight)) so as to achieve the concentration (addition concentration) shown in the following Table 23 to prepare each evaluation sample.
Based on the following evaluation criteria, a panel of four experts determined by consensus the intensity of off-tastes (bitter taste, rough taste, harsh taste) derived from catechin in each evaluation sample, by comparison with a 0.15 wt % catechin aqueous solution without addition of any compound (negative control).

[6] = Sensory evaluation in 0.06 wt % acesulfame potassium aqueous solution (Experimental Example 10); conditions: summary of Table 24
Protocol: Each compound shown in the following Table 24 was added to a 0.06 wt % acesulfame potassium aqueous solution (an aqueous solution prepared by dissolving acesulfame potassium (0.06 parts by weight) in water (99.94 parts by weight)) so as to achieve the concentration (addition concentration) shown in the following Table 24 to prepare each evaluation sample.
Based on the following evaluation criteria, a panel of four experts determined by consensus the intensity of off-tastes (bitter taste) derived from acesulfame potassium in each evaluation sample, by comparison with a 0.06 wt % acesulfame potassium aqueous solution without addition of any compound (negative control).

[7] = Sensory evaluation in granular soy protein (Experimental Example 14); conditions: text summary of Table 28
Protocol: Each compound shown in the following Table 28 was added to granular soy protein (manufactured by FUJI OIL CO., LTD.) so as to achieve the concentration (addition concentration) shown in the following Table 28 to prepare each evaluation sample.
Based on the following evaluation criteria, a panel of four experts determined by consensus the intensity of off-tastes (bitter taste, harsh taste, astringent taste) derived from soy protein in each evaluation sample, by comparison with granular soy protein without addition of any compound (negative control).

[8] = Sensory evaluation in 1.5 wt % disodium phosphate aqueous solution (Experimental Example 19); conditions: Table 34
Protocol: Each compound shown in the following Table 34 was added to a 1.5 wt % disodium phosphate aqueous solution (aqueous solution prepared by dissolving disodium phosphate (1.5 parts by weight) in water (98.5 parts by weight)) so as to achieve the concentration (addition concentration) shown in the following Table 34 to prepare each evaluation sample.
Based on the following evaluation criteria, a panel of four experts determined by consensus the intensity of off-tastes (bitter taste, harsh taste, astringent taste) derived from disodium phosphate in each evaluation sample, by comparison with a 1.5 wt % disodium phosphate aqueous solution without addition of any compound (negative control).

[9] = Sensory evaluation in 1 wt % methyl cellulose aqueous solution (Experimental Example 20); conditions: Table 35
Protocol: Each compound shown in the following Table 35 was added to a 1 wt % methyl cellulose aqueous solution (aqueous solution prepared by dissolving methyl cellulose (1 part by weight) in water (99 parts by weight)) so as to achieve the concentration (addition concentration) shown in the following Table 35 to prepare each evaluation sample. Here, the methyl cellulose manufactured by Unitec Foods Co., Ltd. was used.
Based on the following evaluation criteria, a panel of four experts determined by consensus the intensity of off-tastes (bitter taste, harsh taste, astringent taste) derived from methyl cellulose in each evaluation sample, by comparison with a 1 wt % methyl cellulose aqueous solution without addition of any compound (negative control).

For `CCC(=O)O` [propionic acid], the off-taste suppressing effect [1] was “+++ (intensity of the same level as potassium chloride aqueous solution with potassium chloride concentration of not less than 0.65 wt % and less than 0.7 wt %)”, the off-taste suppressing effect [2] was “++ (intensity of the same level as potassium chloride aqueous solution with potassium chloride concentration of not less than 0.7 wt % and less than 0.75 wt %)” and the off-taste suppressing effect ([3]; Japanese noodle soup base solution, potassium chloride 0.2 g, addition concentration 1000 weight ppb (500 weight ppm with respect to potassium chloride)) was “++ (intensity of the same level as potassium chloride aqueous solution with potassium chloride concentration of not less than 0.1 wt % and less than 0.15 wt %)”. The “intensity of off-tastes (bitter taste, metallic taste, harsh taste, astringent taste) derived from potassium chloride” value ([3]; base solution of Table 19) was “decreased”, the “intensity of off-tastes (bitter taste, harsh taste, astringent taste) derived from pea protein” value [4] was “suppressed” and the “intensity of off-tastes (bitter taste, rough taste, harsh taste) derived from catechin” value [5] was “suppressed”. For the same molecule, the “intensity of off-tastes (bitter taste) derived from acesulfame potassium” value [6] was “suppressed”, the “intensity of off-tastes (bitter taste, harsh taste, astringent taste) derived from soy protein” value [7] was “suppressed” and the “intensity of off-tastes (bitter taste, harsh taste, astringent taste) derived from disodium phosphate” value [8] was “suppressed”. The “intensity of off-tastes (bitter taste, harsh taste, astringent taste) derived from methyl cellulose” value [9] was “suppressed”.
